Assay results as given in ChEMBL document CHEMBL1909046, “DrugMatrix in vitro pharmacology data”.
pIC50, pKi: −log10 of the molar value.

Assays:
[1] = biological target: T1, Alpha-1B adrenergic receptor (Rattus norvegicus, UniProt P15823); experiment: DRUGMATRIX: Alpha-1B adrenergic receptor radioligand binding (ligand: prazosin); type: cell membranes, Wistar, Liver, Membrane; conditions: Not Active = under 50% inhibition at 10 µM
T1 sequence (P15823 whole entry): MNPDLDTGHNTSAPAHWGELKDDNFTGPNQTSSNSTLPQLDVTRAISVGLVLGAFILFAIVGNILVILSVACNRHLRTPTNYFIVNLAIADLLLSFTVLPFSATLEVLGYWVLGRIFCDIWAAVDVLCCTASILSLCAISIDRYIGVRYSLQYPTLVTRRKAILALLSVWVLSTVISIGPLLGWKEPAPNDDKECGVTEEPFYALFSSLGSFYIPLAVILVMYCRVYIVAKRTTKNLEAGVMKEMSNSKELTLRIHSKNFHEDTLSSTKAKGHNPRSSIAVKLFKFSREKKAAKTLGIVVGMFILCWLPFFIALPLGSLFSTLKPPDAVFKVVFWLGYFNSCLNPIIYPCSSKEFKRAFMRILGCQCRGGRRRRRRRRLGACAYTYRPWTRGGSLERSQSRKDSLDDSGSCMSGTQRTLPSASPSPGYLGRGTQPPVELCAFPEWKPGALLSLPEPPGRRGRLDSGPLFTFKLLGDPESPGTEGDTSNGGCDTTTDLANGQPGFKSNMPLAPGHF

[2] = biological target: Beta-2 adrenergic receptor (Homo sapiens, UniProt P07550); experiment: DRUGMATRIX: Adrenergic beta2 radioligand binding (ligand: [3H] CGP-12177); type: cell membranes, CHO, Membrane; conditions: cho; Not Active = under 50% inhibition at 10 µM
[3] = DRUGMATRIX: Calcium Channel Type L, Benzothiazepine radioligand binding (ligand: [3H] Diltiazem); type: cell membranes, Rattus norvegicus, Wistar, Brain, Membrane; conditions: Not Active = under 50% inhibition at 10 µM
[4] = biological target: 5-hydroxytryptamine receptor 6 (Homo sapiens, UniProt P50406); type: cell membranes, HeLa, Membrane; conditions: for IC50: hela; for pIC50: read-out: IC50; for pKi: read-out: Ki; on all read-outs here: in other assays of this panel Not Active means under 50% inhibition at 10 µM
[5] = biological target: T2, Muscarinic acetylcholine receptor M2 (Homo sapiens, UniProt P08172); type: cell membranes, CHO-K1, Membrane; further: in other assays of this panel Not Active means under 50% inhibition at 10 µM
T2 sequence (P08172 whole entry): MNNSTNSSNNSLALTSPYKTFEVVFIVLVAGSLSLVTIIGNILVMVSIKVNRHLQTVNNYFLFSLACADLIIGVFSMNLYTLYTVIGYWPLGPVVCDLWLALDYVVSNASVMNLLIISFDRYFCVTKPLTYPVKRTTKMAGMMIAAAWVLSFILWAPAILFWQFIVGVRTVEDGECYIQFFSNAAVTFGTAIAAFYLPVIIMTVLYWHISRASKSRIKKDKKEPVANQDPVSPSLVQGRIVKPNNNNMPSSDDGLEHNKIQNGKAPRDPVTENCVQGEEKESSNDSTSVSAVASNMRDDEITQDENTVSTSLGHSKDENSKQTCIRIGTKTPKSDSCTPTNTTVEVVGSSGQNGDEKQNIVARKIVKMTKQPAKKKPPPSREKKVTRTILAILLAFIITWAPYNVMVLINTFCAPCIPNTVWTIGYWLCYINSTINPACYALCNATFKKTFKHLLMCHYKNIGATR

[6] = biological target: Protein phosphatase 3 catalytic subunit alpha (Homo sapiens, UniProt Q08209); set-up: species or system Escherichia coli;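 further: inhibition of calcineurin (PP2B) enzyme activity, measured with DiFMUP as the substrate; in other assays of this panel Not Active means under 50% inhibition at 10 µM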

5-hydroxytryptamine receptor 6, sequence (P50406 whole entry): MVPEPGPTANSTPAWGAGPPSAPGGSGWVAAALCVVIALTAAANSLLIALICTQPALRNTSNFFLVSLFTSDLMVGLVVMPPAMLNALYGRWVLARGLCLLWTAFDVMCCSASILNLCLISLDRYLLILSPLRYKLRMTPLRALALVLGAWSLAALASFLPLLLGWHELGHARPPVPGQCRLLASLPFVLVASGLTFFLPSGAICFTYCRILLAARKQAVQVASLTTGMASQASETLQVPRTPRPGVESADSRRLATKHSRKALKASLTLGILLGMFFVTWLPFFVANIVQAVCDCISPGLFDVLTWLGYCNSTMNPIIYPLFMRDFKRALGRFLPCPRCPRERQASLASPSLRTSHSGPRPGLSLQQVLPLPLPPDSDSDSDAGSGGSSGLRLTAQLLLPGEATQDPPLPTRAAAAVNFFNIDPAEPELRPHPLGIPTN
Beta-2 adrenergic receptor, sequence (P07550 whole entry): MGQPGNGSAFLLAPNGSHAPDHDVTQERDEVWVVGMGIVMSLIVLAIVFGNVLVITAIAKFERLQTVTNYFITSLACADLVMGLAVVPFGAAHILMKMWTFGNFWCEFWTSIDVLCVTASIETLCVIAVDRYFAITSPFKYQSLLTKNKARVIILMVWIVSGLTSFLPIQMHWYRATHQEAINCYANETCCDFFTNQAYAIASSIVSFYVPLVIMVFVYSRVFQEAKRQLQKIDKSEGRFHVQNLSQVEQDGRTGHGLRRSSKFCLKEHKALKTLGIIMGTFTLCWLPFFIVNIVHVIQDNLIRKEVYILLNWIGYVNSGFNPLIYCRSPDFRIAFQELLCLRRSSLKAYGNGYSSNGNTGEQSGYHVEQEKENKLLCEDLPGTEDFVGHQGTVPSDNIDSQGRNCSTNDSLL

Structure (SMILES)	IC50 [1]	IC50 [2]	IC50 [3]	Ki [3]	IC50 [4]	IC50 ([5]; cho-k1)	IC50 [6]	pIC50 ([5]; read-out: IC50)	pKi ([5]; read-out: Ki)	pIC50 [4]	pKi [4]	Ki ([5]; cho-k1)	pIC50 ([3]; read-out: IC50)	pKi ([3]; read-out: Ki)
Oc1ccccc1 [PHENOL]	Not Active	Not Active	Not Active	Not Active	Not Active	Not Active	Not Active							
Oc1ncnc2[nH]ncc12 [ALLOPURINOL]	Not Active	Not Active	Not Active	Not Active	Not Active	Not Active	Not Active							
COC(=O)Nc1nc2ccc(Sc3ccccc3)cc2[nH]1 [FENBENDAZOLE]	Not Active	Not Active	Not Active	Not Active	Not Active	Not Active	Not Active							
C[C@@H]1[C@H](O)[C@@H](C)/C=C/C=C/C=C/C=C/C=C/C=C/C=C/[C@H](O[C@@H]2O[C@H](C)[C@@H](O)[C@H](N)[C@@H]2O)C[C@@H]2O[C@](O)(C[C@@H](O)C[C@@H](O)[C@H](O)CC[C@@H](O)C[C@@H](O)CC(=O)O[C@H]1C)C[C@H](O)[C@H]2C(=O)O [AMPHOTERICIN B]	Not Active	Not Active	Not Active	Not Active	Not Active	Not Active	Not Active							
CCO [ALCOHOL]	Not Active	Not Active	Not Active	Not Active	Not Active	Not Active	Not Active							
COc1cc(/C=C/C(=O)O)ccc1O [FERULATE]	Not Active	Not Active	Not Active	Not Active	Not Active	Not Active	Not Active							
CNC[C@H](O)c1ccc(O)c(O)c1 [EPINEPHRINE]			Not Active	Not Active	Not Active	Not Active	Not Active							
CC1(COc2ccc(CC3SC(=O)NC3=O)cc2)CCCCC1 (configuration not stated) [CIGLITAZONE]	Not Active	Not Active	Not Active	Not Active	Not Active		Not Active	4.68	5.12					
NC(N)=Nc1nc(CSCCC(N)=NS(N)(=O)=O)cs1 [FAMOTIDINE]	Not Active	Not Active	Not Active	Not Active	Not Active	Not Active	Not Active							
Nc1nc(F)nc2c1ncn2[C@@H]1O[C@H](CO)[C@@H](O)[C@@H]1O [FLUDARABINE]	Not Active	Not Active	Not Active	Not Active	Not Active	Not Active	Not Active							
NC(=O)NC(=O)Cc1ccccc1 [PHENACEMIDE]	Not Active	Not Active	Not Active	Not Active	Not Active	Not Active	Not Active							
Nc1ccc(C(=O)O)c(O)c1 [AMINOSALICYLIC ACID]	Not Active	Not Active	Not Active	Not Active	Not Active	Not Active	Not Active							
O=c1[nH]cnc2c1ncn2[C@H]1CC[C@@H](CO)O1 [DIDANOSINE]	Not Active	Not Active	Not Active	Not Active	Not Active	Not Active	Not Active							
NC(=O)CN1CCCC1=O	Not Active	Not Active	Not Active	Not Active	Not Active	Not Active	Not Active							
Clc1cc(Cl)c(OCC#CI)cc1Cl [HALOPROGIN]	Not Active	Not Active	Not Active	Not Active		Not Active	Not Active			5.40	5.73			
O=C(NCCN1CCOCC1)c1ccc(Cl)cc1 [MOCLOBEMIDE]	Not Active	Not Active	Not Active	Not Active	Not Active	Not Active	Not Active							
Cc1c(N)nc([C@H](CC(N)=O)NC[C@H](N)C(N)=O)nc1C(=O)N[C@H](C(=O)N[C@H](C)[C@@H](O)[C@H](C)C(=O)N[C@H](C(=O)NCCc1nc(-c2nc(C(=O)NCCC[S+](C)C)cs2)cs1)[C@@H](C)O)[C@@H](O[C@@H]1O[C@@H](CO)[C@@H](O)[C@H](O)[C@@H]1O[C@H]1O[C@H](CO)[C@@H](O)[C@H](OC(N)=O)[C@@H]1O)c1c[nH]cn1.[Br-] [BLEOMYCIN A2]	Not Active	Not Active	Not Active	Not Active	Not Active	Not Active	Not Active							
CC(C)Cc1ccc([C@H](C)C(=O)O)cc1 [DEXIBUPROFEN]	Not Active	Not Active	Not Active	Not Active	Not Active	Not Active	Not Active							
COc1ccc(C[C@H](N)C(=O)N[C@H]2[C@@H](O)[C@H](n3cnc4c(N(C)C)ncnc43)O[C@@H]2CO)cc1 [PUROMYCIN]	Not Active	Not Active	Not Active	Not Active	Not Active	Not Active	Not Active							
CCC1(c2ccccc2)C(=O)NC(=O)NC1=O [PHENOBARBITAL]	Not Active	Not Active	Not Active	Not Active	Not Active	Not Active	Not Active							
O=C1c2ccccc2C(=O)C1c1ccccc1 [PHENINDIONE]	Not Active	Not Active	Not Active	Not Active	Not Active	Not Active	Not Active							
OC[C@H]1OC2C3[C@@H](CO)OC(O[C@H]4[C@H](O)[C@@H](O)[C@@H](O[C@H]5[C@H](O)[C@@H](O)[C@@H](O[C@H]6[C@H](O)[C@@H](O)[C@@H](O[C@H]7[C@H](O)[C@@H](O)[C@@H](O[C@H]8[C@H](O)[C@@H](O)[C@@H](O[C@H]9[C@H](O)[C@@H](O)C(OC1[C@H](O)[C@H]2O)O[C@@H]9CO)O[C@@H]8CO)O[C@@H]7CO)O[C@@H]6CO)O[C@@H]5CO)O[C@@H]4CO)[C@H](O)[C@H]3O	Not Active	Not Active	Not Active	Not Active	Not Active	Not Active	Not Active							
CO[C@H]1O[C@@H]2O[C@@]3(C)CC[C@H]4[C@H](C)CC[C@@H]([C@H]1C)[C@@]24OO3	Not Active	Not Active	Not Active	Not Active	Not Active	Not Active	Not Active							
CC(C)Cn1cnc2c(N)nc3ccccc3c21 [IMIQUIMOD]	Not Active	Not Active	Not Active	Not Active	Not Active		Not Active					Not Active		
Cc1cc(C(C)(C)C)c(O)c(C)c1CC1=NCCN1 [OXYMETAZOLINE]		Not Active	Not Active	Not Active		Not Active	Not Active			5.78	6.11			
COc1ccccc1OCCNCC(O)COc1cccc2[nH]c3ccccc3c12 (configuration not stated) [CARVEDILOL]						Not Active	Not Active			5.82	6.15		6.21	6.26
CC(C)NCC(O)COc1ccc(CC(N)=O)cc1 (configuration not stated) [ATENOLOL]	Not Active		Not Active	Not Active	Not Active	Not Active	Not Active							
